The target of the assay is T1, human mAChR M4 (Homo sapiens, UniProt P08173).
T1 construct: expressed in transfected cells
T1 sequence (P08173 1-479): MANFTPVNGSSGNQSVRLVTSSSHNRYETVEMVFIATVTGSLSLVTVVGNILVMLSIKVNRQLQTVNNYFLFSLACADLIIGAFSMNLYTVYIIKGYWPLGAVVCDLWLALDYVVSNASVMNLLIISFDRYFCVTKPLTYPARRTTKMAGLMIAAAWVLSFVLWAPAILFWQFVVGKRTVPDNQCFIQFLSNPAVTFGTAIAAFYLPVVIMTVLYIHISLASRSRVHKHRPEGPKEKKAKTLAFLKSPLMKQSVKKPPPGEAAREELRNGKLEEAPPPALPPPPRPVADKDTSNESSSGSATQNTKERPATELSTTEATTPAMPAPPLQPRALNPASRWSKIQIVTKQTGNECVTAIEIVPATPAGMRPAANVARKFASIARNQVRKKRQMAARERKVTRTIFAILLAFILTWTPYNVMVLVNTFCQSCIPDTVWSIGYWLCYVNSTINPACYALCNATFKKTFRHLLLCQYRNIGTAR
Briefly: mAChR M4 cell-based functional assay (calcium mobilization, CHO-K1 hM4-Gqi5 cells). Conditions: for Emax at 30 µM: CHO-K1, % ACh maximum at 30 μM, human M4; for EC50: positive allosteric modulator activity, increase in the EC20 acetylcholine response, CHO-K1 hM4-Gqi5 cells, read-out: Human M4 EC50. Summed up:
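Fluorescent calcium read-out (Fluo-4 AM, FDSS, 1 Hz) in hM4-Gqi5 CHO-K1 cells, 11-point 1:3 compound series. Agonism scored on compound addition, PAM activity as increase of the 144 s EC20 acetylcholine response, antagonism as decrease of the 230 s EC80 response; four-parameter logistic fits give EC50 and Emax.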
A general note: A change in cytosolic calcium serves as a functional read-out for many receptors and channels.

For orientation: Emax means the greatest response seen or fitted, relative to the assay's reference. For orientation: EC50 means the concentration needed to bring the measured effect to its halfway point. Regarding `Cc1cc(C(=O)NCC2CCOCC2)cnc1N1CCc2ncc(-c3cn(C)nc3C)cc2C1` [Example 459, 6-(3-(1,3-dimethyl-1H-pyrazol-4-yl)-7,8-dihydro-1,6-naphthyridin-6(5H)-yl)-5-methyl-N-((tetrahydro-2H-pyran-4-yl)methyl)nicotinamide], the maximal effect (Emax) at 30 µM is 71% and the half-maximal effective concentration (EC50) was determined as 1190 nM.
For `Cc1cc(C(=O)NCC(C)C)cnc1N1CCc2ncc(-c3cn(C)nc3C)cc2C1` [Example 460, 6-(3-(1,3-dimethyl-1H-pyrazol-4-yl)-7,8-dihydro-1,6-naphthyridin-6(5H)-yl)-N-isobutyl-5-methylnicotinamide], the maximum response (Emax) at 30 µM worked out at 71% and the EC50 was determined as 1830 nM.
The matching figures for `Cc1cc(C(=O)NCC(C)(C)O)cnc1N1CCc2ncc(-c3cn(C)nc3C)cc2C1` [Example 461, 6-(3-(1,3-dimethyl-1H-pyrazol-4-yl)-7,8-dihydro-1,6-naphthyridin-6(5H)-yl)-N-(2-hydroxy-2-methylpropyl)-5-methylnicotinamide]: 76% and 4100 nM.
With `Cc1cc(C(=O)NCc2ccc(Cl)nc2Cl)cnc1N1CCc2ncc(-c3cn(C)nc3C)cc2C1` [Example 462, N-((2,6-dichloropyridin-3-yl)methyl)-6-(3-(1,3-dimethyl-1H-pyrazol-4-yl)-7,8-dihydro-1,6-naphthyridin-6(5H)-yl)-5-methylnicotinamide], the Emax at 30 µM worked out at 72% and the EC50 worked out at 714 nM.
Regarding `Cc1c(C(=O)NCc2csc3ccccc23)nnc(N2CCc3ncc(C(F)(F)F)cc3C2)c1C` [Example 463, N-(benzo[b]thiophen-3-ylmethyl)-4,5-dimethyl-6-(3-(trifluoromethyl)-7,8-dihydro-1,6-naphthyridin-6(5H)-yl)pyridazine-3-carboxamide], the maximum response (Emax) at 30 µM was found to be 101% and the 50% effective concentration (EC50) came to 422 nM.
Turning to `Cc1cnccc1CNC(=O)c1nnc(N2CCc3ncc(C(F)(F)F)cc3C2)c(C)c1C` [Example 464, 4,5-dimethyl-N-((3-methylpyridin-4-yl)methyl)-6-(3-(trifluoromethyl)-7,8-dihydro-1,6-naphthyridin-6(5H)-yl)pyridazine-3-carboxamide], the maximal response (Emax) at 30 µM was 101% and the EC50 came to 36 nM.
Consider `Cc1c(C(=O)NCc2cncs2)nnc(N2CCc3ncc(C(F)(F)F)cc3C2)c1C` [Example 465, 4,5-dimethyl-N-(thiazol-5-ylmethyl)-6-(3-(trifluoromethyl)-7,8-dihydro-1,6-naphthyridin-6(5H)-yl)pyridazine-3-carboxamide], for which the Emax at 30 µM was 101% and the 50% effective concentration (EC50) came to 44 nM.
Regarding `Cc1c(C(=O)Nc2ccncc2)nnc(N2CCc3ncc(C(F)(F)F)cc3C2)c1C` [Example 466, 4,5-dimethyl-N-(pyridin-4-yl)-6-(3-(trifluoromethyl)-7,8-dihydro-1,6-naphthyridin-6(5H)-yl)pyridazine-3-carboxamide], the maximal response (Emax) at 30 µM was 98% and the concentration giving a half-maximal response (EC50) was 111 nM.
In the case of `Cc1c(C(=O)NCc2ccncc2)nnc(N2CCc3ncc(C(F)(F)F)cc3C2)c1C` [Example 467, 4,5-dimethyl-N-(pyridin-4-ylmethyl)-6-(3-(trifluoromethyl)-7,8-dihydro-1,6-naphthyridin-6(5H)-yl)pyridazine-3-carboxamide], the Emax at 30 µM came to 98% and the EC50 stood at 129 nM.
As for `Cc1cnc2c(c1)CN(c1nnc(C(=O)NCc3cncs3)c(C)c1C)CC2` [Example 468, 4,5-dimethyl-6-(3-methyl-7,8-dihydro-1,6-naphthyridin-6(5H)-yl)-N-(thiazol-5-ylmethyl)pyridazine-3-carboxamide], the maximal effect (Emax) at 30 µM came to 108% and the half-maximal effective concentration (EC50) was determined as 119 nM.
As for `Cc1cnc2c(c1)CN(c1nnc(C(=O)Nc3ccncc3)c(C)c1C)CC2` [Example 469, 4,5-dimethyl-6-(3-methyl-7,8-dihydro-1,6-naphthyridin-6(5H)-yl)-N-(pyridin-4-yl)pyridazine-3-carboxamide], the Emax at 30 µM came out at 98% and the EC50 was found to be 114 nM.
In the case of `Cc1cnc2c(c1)CN(c1nnc(C(=O)NCc3csc4ccccc34)c(C)c1C)CC2` [Example 470, N-(benzo[b]thiophen-3-ylmethyl)-4,5-dimethyl-6-(3-methyl-7,8-dihydro-1,6-naphthyridin-6(5H)-yl)pyridazine-3-carboxamide], the Emax at 30 µM was 102% and the EC50 is 278 nM.
The matching figures for `Cc1cnc2c(c1)CN(c1nnc(C(=O)NCc3cnc4ccccc4c3)c(C)c1C)CC2` [Example 471, 4,5-dimethyl-6-(3-methyl-7,8-dihydro-1,6-naphthyridin-6(5H)-yl)-N-(quinolin-3-ylmethyl)pyridazine-3-carboxamide]: 91% and 251 nM.
As for `Cc1cnc2c(c1)CN(c1nnc(C(=O)NCc3ccncc3C)c(C)c1C)CC2` [Example 472, 4,5-dimethyl-6-(3-methyl-7,8-dihydro-1,6-naphthyridin-6(5H)-yl)-N-((3-methylpyridin-4-yl)methyl)pyridazine-3-carboxamide], the Emax at 30 µM came out at 99% and the concentration for a half-maximal effect (EC50) is 71 nM.
Turning to `Cc1cc(C(=O)NCc2ccncc2)cnc1N1CCc2ncc(Nc3ccnn3C)cc2C1` [Example 473, 5-methyl-6-(3-((1-methyl-1H-pyrazol-5-yl)amino)-7,8-dihydro-1,6-naphthyridin-6(5H)-yl)-N-(pyridin-4-ylmethyl)nicotinamide], the maximum response (Emax) at 30 µM was determined as 87% and the concentration giving a half-maximal response (EC50) worked out at 324 nM.
Turning to `Cc1cnccc1CNC(=O)c1cnc(N2CCc3ncc(Nc4ccnn4C)cc3C2)c(C)c1` [Example 474, 5-methyl-6-(3-((1-methyl-1H-pyrazol-5-yl)amino)-7,8-dihydro-1,6-naphthyridin-6(5H)-yl)-N-((3-methylpyridin-4-yl)methyl)nicotinamide], the maximum response (Emax) at 30 µM was found to be 89% and the concentration for a half-maximal effect (EC50) stood at 206 nM.
`Cc1cc(C(=O)NC2CC3(COC3)C2)cnc1N1CCc2ncc(-c3cn(C)nc3C)cc2C1` [Example 475, 6-(3-(1,3-dimethyl-1H-pyrazol-4-yl)-7,8-dihydro-1,6-naphthyridin-6(5H)-yl)-5-methyl-N-(2-oxaspiro[3.3]heptan-6-yl)nicotinamide]: the Emax at 30 µM came to 64% and the half-maximal effective concentration (EC50) came out at 1740 nM.
Regarding `Cc1cc(C(=O)NC2CC(F)(F)C2)cnc1N1CCc2ncc(-c3cn(C)nc3C)cc2C1` [Example 476, N-(3,3-difluorocyclobutyl)-6-(3-(1,3-dimethyl-1H-pyrazol-4-yl)-7,8-dihydro-1,6-naphthyridin-6(5H)-yl)-5-methylnicotinamide], the maximum response (Emax) at 30 µM came out at 67% and the EC50 is 752 nM.
The matching figures for `Cc1cc(C(=O)NC23CC(F)(C2)C3)cnc1N1CCc2ncc(-c3cn(C)nc3C)cc2C1` [Example 477, 6-(3-(1,3-dimethyl-1H-pyrazol-4-yl)-7,8-dihydro-1,6-naphthyridin-6(5H)-yl)-N-(3-fluorobicyclo[1.1.1]pentan-1-yl)-5-methylnicotinamide]: 80% and 2470 nM.
For `Cc1cc(C(=O)NCc2ccc(-n3ccnc3)nc2)cnc1N1CCc2ncc(-c3cn(C)nc3C)cc2C1` [Example 478, N-((6-(1H-imidazol-1-yl)pyridin-3-yl)methyl)-6-(3-(1,3-dimethyl-1H-pyrazol-4-yl)-7,8-dihydro-1,6-naphthyridin-6(5/)-yl)-5-methylnicotinamide], the Emax at 30 µM was 50% and the 50% effective concentration (EC50) was 379 nM.
Take `Cc1cc(C(=O)NCc2ccc3ncnn3c2)cnc1N1CCc2ncc(-c3cn(C)nc3C)cc2C1` [Example 479, N-([1,2,4]triazolo[1,5-a]pyridin-6-ylmethyl)-6-(3-(1,3-dimethyl-1/- pyrazol-4-yl)-7,8-dihydro-1,6-naphthyridin-6(5H)-yl)-5-methylnicotinamide]: the maximal effect (Emax) at 30 µM is 57% and the EC50 came out at 886 nM.
Turning to `Cc1cc(C(=O)NCc2ccc(N3CCOCC3)nc2)cnc1N1CCc2ncc(-c3cn(C)nc3C)cc2C1` [Example 480, 6-(3-(1,3-dimethyl-1H-pyrazol-4-yl)-7,8-dihydro-1,6-naphthyridin-6(5H)-yl)-5-methyl-N-((6-morpholinopyridin-3-yl)methyl)nicotinamide], the Emax at 30 µM came to 76% and the concentration for a half-maximal effect (EC50) amounted to 1390 nM.
Take `Cc1cc(C(=O)NCc2ccc(Cl)nc2)cnc1N1CCc2ncc(-c3cn(C)nc3C)cc2C1` [Example 481, N-((6-chloropyridin-3-yl)methyl)-6-(3-(1,3-dimethyl-1H-pyrazol-4-yl)-7,8-dihydro-1,6-naphthyridin-6(5H)-yl)-5-methylnicotinamide]: the maximal response (Emax) at 30 µM came to 58% and the EC50 was 1060 nM.
With `Cc1cc(C(=O)NCc2ccncc2)cnc1N1CCc2ncc(-c3cn(C)nc3C)cc2C1` [Example 482, 6-(3-(1,3-dimethyl-1H-pyrazol-4-yl)-7,8-dihydro-1,6-naphthyridin-6(5H)-yl)-5-methyl-N-(pyridin-4-ylmethyl)nicotinamide], the Emax at 30 µM worked out at 78% and the concentration giving a half-maximal response (EC50) amounted to 468 nM.
